Measurements published in ChEMBL document CHEMBL1158132, “26,27-cyclosterols and other polyoxygenated sterols from a marine sponge Topsentia sp” (2006).
≈ marks a conversion by molar mass, not a printed value.

How the values were obtained:
Format in all cases: functional
Conditions in all cases: read-out: ED50 (the source's name)
A549 = assay: Cytotoxicity against human A549 cells
SK-OV-3 = assay: Cytotoxicity against human SKOV3 cells
SK-MEL-2 = assay: Cytotoxicity against human SK-MEL-2 cells
XF498 = assay: Cytotoxicity against human XF498 cells
HCT-15 = assay: Cytotoxicity against human HCT-15 cells

CC(C)=C[C@@H](C)[C@H]1CC[C@@H]2[C@]1(C)CC[C@H]1[C@]23C=C[C@]2(CCCC[C@]12C)OO3
EC50 (A549): 30 µg/mL (≈ 81 µM) | EC50 (SK-OV-3): 19.4 µg/mL (≈ 52.4 µM) | EC50 (SK-MEL-2): 25.9 µg/mL (≈ 69.9 µM) | EC50 (XF498): > 30 µg/mL | EC50 (HCT-15): 21.4 µg/mL (≈ 57.7 µM)

CC(C)[C@@H](C)/C=C/[C@@H](C)[C@H]1CC[C@@H]2[C@]1(C)CC[C@H]1[C@]23C=C[C@]2(CCCC[C@]12C)OO3
EC50 (A549): 17.5 µg/mL (≈ 42.4 µM) | EC50 (SK-OV-3): 17.8 µg/mL (≈ 43.1 µM) | EC50 (SK-MEL-2): 19.4 µg/mL (≈ 47 µM) | EC50 (XF498): 24.7 µg/mL (≈ 59.9 µM) | EC50 (HCT-15): 21.1 µg/mL (≈ 51.1 µM)

CC(C)C/C=C/[C@@H](C)[C@H]1CC[C@H]2C3=C(CC[C@]12C)[C@@]1(C)CC[C@H](O)CC1=CC3=O
EC50 (A549): > 30 µg/mL | EC50 (SK-OV-3): > 30 µg/mL | EC50 (SK-MEL-2): > 30 µg/mL | EC50 (XF498): > 30 µg/mL | EC50 (HCT-15): 38.4 µg/mL (≈ 96.8 µM)

CC(C)[C@@H](C)/C=C/[C@@H](C)[C@H]1CCC2=C3[C@H](O)[C@@H]4O[C@@]45C[C@@H](O)CC[C@]5(C)[C@H]3CC[C@@]21C
EC50 (A549): > 30 µg/mL | EC50 (SK-OV-3): 17.9 µg/mL (≈ 41.8 µM) | EC50 (SK-MEL-2): > 30 µg/mL | EC50 (XF498): > 30 µg/mL | EC50 (HCT-15): 17.9 µg/mL (≈ 41.8 µM)

CC(C)C/C=C/[C@@H](C)[C@H]1CC[C@@H]2[C@]1(C)CC=C1[C@]23C=C[C@]2(CCCC[C@]12C)OO3
EC50 (A549): 6.3 µg/mL (≈ 15.9 µM) | EC50 (SK-OV-3): 6.3 µg/mL (≈ 15.9 µM) | EC50 (SK-MEL-2): 5.2 µg/mL (≈ 13.1 µM) | EC50 (XF498): 11.4 µg/mL (≈ 28.7 µM) | EC50 (HCT-15): 4.7 µg/mL (≈ 11.9 µM)

COc1cccc2c1C(=O)c1c(O)c3c(c(O)c1C2=O)C[C@@](O)(C(=O)CO)C[C@@H]3O[C@H]1C[C@H](N)[C@H](O)[C@H](C)O1 [DOXORUBICIN]
EC50 (A549): 0.08 µg/mL (≈ 0.147 µM) | EC50 (SK-OV-3): 0.19 µg/mL (≈ 0.35 µM) | EC50 (SK-MEL-2): 0.08 µg/mL (≈ 0.147 µM) | EC50 (XF498): 0.07 µg/mL (≈ 0.129 µM) | EC50 (HCT-15): 0.13 µg/mL (≈ 0.239 µM)

CCC(C)/C=C/[C@@H](C)[C@H]1CC[C@@H]2[C@]1(C)CC=C1[C@]23C=C[C@]2(CCCC[C@]12C)OO3 (stereo not given in full) [TOPSENTISTEROL A3]
EC50 (A549): 5.4 µg/mL (≈ 13.6 µM) | EC50 (SK-OV-3): 7.1 µg/mL (≈ 17.9 µM) | EC50 (SK-MEL-2): 4.6 µg/mL (≈ 11.6 µM) | EC50 (XF498): 6.2 µg/mL (≈ 15.6 µM) | EC50 (HCT-15): 4.2 µg/mL (≈ 10.6 µM)

CC(C)[C@H](C)/C=C/[C@@H](C)[C@H]1CC[C@H]2C3=C(CC[C@]12C)[C@@]1(C)CC[C@H](O)C[C@@]12O[C@H]2[C@H]3O [TOPSENTISTEROL B4]
EC50 (A549): 9.7 µg/mL (≈ 22.6 µM) | EC50 (SK-OV-3): 7.8 µg/mL (≈ 18.2 µM) | EC50 (SK-MEL-2): 11.3 µg/mL (≈ 26.4 µM) | EC50 (XF498): 19 µg/mL (≈ 44.3 µM) | EC50 (HCT-15): 14.1 µg/mL (≈ 32.9 µM)

CC(C)[C@H](C)/C=C/[C@@H](C)[C@H]1CCC2=C3[C@H](O)[C@@H]4O[C@@]45C[C@@H](O)CC[C@]5(C)[C@H]3CC[C@@]21C [TOPSENTISTEROL B5]
EC50 (A549): 13.9 µg/mL (≈ 32.4 µM) | EC50 (SK-OV-3): 7.9 µg/mL (≈ 18.4 µM) | EC50 (SK-MEL-2): 5.5 µg/mL (≈ 12.8 µM) | EC50 (XF498): > 30 µg/mL | EC50 (HCT-15): 18.4 µg/mL (≈ 42.9 µM)

C[C@H](CC[C@@H](C)[C@H]1CC[C@H]2C3=CC(=O)[C@@]4(O)C[C@@H](O)CC[C@]4(C)[C@@]3(O)CC[C@]12C)[C@@H]1C[C@H]1C [TOPSENTISTEROL C1]
EC50 (A549): 7.7 µg/mL (≈ 16.8 µM) | EC50 (SK-OV-3): 4.2 µg/mL (≈ 9.16 µM) | EC50 (SK-MEL-2): 11.3 µg/mL (≈ 24.6 µM) | EC50 (XF498): 17.7 µg/mL (≈ 38.6 µM) | EC50 (HCT-15): 6.1 µg/mL (≈ 13.3 µM)

CO[C@@H]1C=C2[C@@H]3CC[C@H]([C@H](C)/C=C/[C@@H](C)C(C)C)[C@@]3(C)CC[C@]2(O)[C@@]2(C)CC[C@H](O)C[C@]12O [TOPSENTISTEROL C3]
EC50 (A549): 5.6 µg/mL (≈ 12.2 µM) | EC50 (SK-OV-3): 7.8 µg/mL (≈ 16.9 µM) | EC50 (SK-MEL-2): 11.5 µg/mL (≈ 25 µM) | EC50 (XF498): 4.7 µg/mL (≈ 10.2 µM) | EC50 (HCT-15): 4.3 µg/mL (≈ 9.33 µM)

CC(C)[C@H](C)/C=C/[C@@H](C)[C@H]1CC[C@H]2C3=C(CC[C@]12C)[C@@]1(C)CC[C@H](O)CC1=CC3=O [TOPSENTISTEROL D3]
EC50 (A549): > 30 µg/mL | EC50 (SK-OV-3): > 30 µg/mL | EC50 (SK-MEL-2): 24.5 µg/mL (≈ 59.7 µM) | EC50 (XF498): > 30 µg/mL | EC50 (HCT-15): 33.6 µg/mL (≈ 81.8 µM)
